Data: patent publication US20050250837A1, “Use of C-Raf inhibitors for the treatment of neurodegenerative diseases” (priority 2002, published 2005)
Values belong to the compound of their own block, whether it stands above or below them.

Legend:
[1] = test system: cerebellar granule neurons; assay: LK-induced apoptosis of cultured cerebellar granule neurons (MTT viability); type: cell-based, rat; conditions: for effect of MEK inhibitor on neuroprotection by GW5074: LK + 1 uM GW5074 with 40 uM PD98059 or 10 uM U0126
Procedure: Cultured cerebellar granule neurons undergo apoptosis when switched from HK to medium containing LK (D'Mello et al., 1993). […] Neuronal cultures were switched to medium containing LK, or LK medium containing different doses of GW5074. Cell viability was quantified 24 hours later. Control cultures received HK medium. […] Protection against LK-induced apoptosis is maximal at 1 uM.
Granule neuron cultures were obtained from dissociated cerebella of 7-8 day old rats as described previously (D'Mello et al., 1993). Cells were plated in Basal Eagle's Medium with Earles salts (BME) supplemented with 10% fetal bovine serum (FBS), 25 mM KCl, 2 mM glutamine (Gibco-BRL), and 100 ug/ml gentamycin on dishes coated with poly-L-lys ine in 24-well dishes at a density 1.0×10^6 cells/well, 1.2×10^7 cells/60 mm dish, or 3.0×10^7 cells/100 mm dish. Cytosine arabinofuranoside (10 uM) was added to the culture medium 18-22 hours after plating to prevent replication of non-neuronal cells. Cultures were maintained for 6-7 days prior to experimental treatments. For this, the cells were rinsed once and then maintained in low K^+ medium (serum-free BME medium, 5 mM KCl) or high K^+ medium (serum-free BME medium, supplemented with 20 mM KCl). When used to treat cultures, GW5074 was added at the time when cells were switched to LK medium. Treatment of cultures with pharmacological inhibitors was initiated 15 min prior to rinsing and was maintained through the subsequent incubation in LK or HK medium unless specified otherwise. For MPP+ and methylmercury treatments, 7-8 day old cultures were switched to HK medium containing 200 uM MPP+ or 0.5 uM methylmercury. Viability was assayed 24 hours later.
Neuronal survival was quantified by the MTT assay as previously described (Koulich et al., 2001). Briefly, the tetrazolium salt MTT [3-(4,5-dimethyl-2-thiazolyl)-2,5-diphenyl-2H tetrazolium bromide] was added to the cultures at a final concentration of 1 mg/ml, and incubation of the culture was continued in the CO2 incubator for a further 30 min at 37° C. The assay was stopped by adding lysis buffer [20% SDS in 50% N,N-dimethyl formamide, pH 4.7]. The absorbance was measured specrophotometrically at 570 nm after an overnight incubation at room temperature. The absorbance of a well without cells was used as background and subtracted. Results obtained using the MTT assays were confirmed using the fluorescein-diacetate method for quantification of cell viability, as previously described (D'Mello et al., 1993). Data are presented as mean+/−standard deviation. Statistical analysis was performed using ANOVA and Student-Neuman-Keuls' test.

[2] = test system: ERK 1/2; assay: ERK 1/2 phosphorylation in neuronal cultures, Western blot; type: cell-based, rat; conditions: LK + 1 uM GW5074 + 40 uM PD98059, 1 hour
Text: Activation of all three Raf proteins results in activation of MEK and ERK.
Survival of cerebellar granule neurons can be maintained by BDNF and this effect of BDNF is mediated by the Raf-MEK-ERK signaling pathway (Bonni et al., 1999). The Raf-MEK-ERK pathway is also involved in promoting survival of other neuronal and normeuronal cell types. A potent blocker of the Raf-MEK-ERK pathway is PD98059 (Alessi et al., 1995). In paradigms in which the Raf-MEK-ERK pathway mediates neuronal survival, such as BDNF-treated cerebellar granule neurons, the presence of […] blocks survival (Bonni et al., 1999). […] Lysates from the cultures were subjected to Western blotting using an antibody specific for phospho-ERK.
(§1) For whole-cell lysates, the culture medium was discarded, the neurons washed twice with ice-cold phosphate-buffered saline (PBS), and lysed in lysis buffer (1% Triton, 20 mM Tris-HCl (pH 7.5), 150 mM NaCl, 1 mM Na2EDTA, 1 mM EGTA, 2.5 mM sodium pyrophosphate, 1 mM beta-glycerophosphate, 1 mM Na3VO4, 1 μg/ml leupeptin and 1× protease inhibitor mixture). Protein concentrations were measured using a Bradford protein assay kit (Bio-Rad), and equivalent amounts of protein were mixed with 6×SDS-PAGE sample buffer. […] After staining with Ponceau S to verify uniformity of protein loads/transfer, the membranes were analyzed for immunoreactivity. […]

[3] = molecular target: T1, C-Raf (Rattus norvegicus, UniProt P11345); assay: Activity of C-Raf immunoprecipitated from neuronal lysates, GST-MEK substrate, phospho-MEK Western; type: cell-based
T1 construct: Activities of endogenous C-Raf and B-Raf activity was assayed by measuring the ability of kinase immunoprecipitated from neuronal lysates; endogenous in cells; host or cells: primary rat cerebellar granule neurons
T1 sequence (P11345 whole entry): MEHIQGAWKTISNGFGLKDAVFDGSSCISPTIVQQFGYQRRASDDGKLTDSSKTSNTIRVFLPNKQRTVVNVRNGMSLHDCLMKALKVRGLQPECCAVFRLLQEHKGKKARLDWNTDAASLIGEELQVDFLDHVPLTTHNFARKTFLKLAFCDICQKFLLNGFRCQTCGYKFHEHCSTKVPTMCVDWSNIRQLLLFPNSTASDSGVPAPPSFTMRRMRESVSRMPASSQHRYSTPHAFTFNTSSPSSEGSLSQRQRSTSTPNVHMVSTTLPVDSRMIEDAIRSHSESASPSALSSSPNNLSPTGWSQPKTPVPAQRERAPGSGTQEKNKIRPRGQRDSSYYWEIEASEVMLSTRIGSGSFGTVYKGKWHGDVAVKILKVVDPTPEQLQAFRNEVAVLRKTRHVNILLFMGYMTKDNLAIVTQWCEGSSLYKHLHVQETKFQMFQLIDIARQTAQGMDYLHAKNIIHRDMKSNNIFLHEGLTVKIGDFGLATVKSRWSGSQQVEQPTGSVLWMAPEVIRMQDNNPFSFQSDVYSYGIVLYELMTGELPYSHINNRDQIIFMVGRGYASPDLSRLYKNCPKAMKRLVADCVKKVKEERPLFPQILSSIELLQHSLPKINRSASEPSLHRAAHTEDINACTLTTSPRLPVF
Procedure: The immunoprecipitated C-Raf was used in in vitro kinase assays using GST-MEK as substrate and the reaction products subjected to Western analysis. Phosphorylation of MEK was detected using a phospho-MEK antibody. […] After 1 hour of treatment, the cultures were lysed, C-Raf immunoprecipitated from the lysate and used in an in vitro kinase assay with MEK as substrate. The reaction mixture was subjected to Western analysis using a phospho-MEK antibody as probe.
(Hall-Jackson et al., 1999). […] Lysates from the cultures were used in a kinase reaction with MEK as substrate. […] Phosphorylation of MEK was detected by Western blot analysis using an phospho-MEK antibody and the same blot was reprobed with a C-Raf antibody.
After treatment, cultures of 7-8-day old neurons were washed twice with ice-cold PBS and lysed in ice cold lysis buffer. The lysates were centrifuged for 10 min at 10,000 rpm at 4° C. Protein concentrations of the supernatant were measured using a Bradford protein assay kit (Bio-Rad), and equivalent amounts of protein were incubated overnight with primary antibody (1.0-2 ug) and then for 2 h with 20 ul Protein A/G PLUS-Agarose (Santa Cruz Biotech.) Immunoprecipitates were collected by centrifugation at 2,500 rpm for 5 min at 4° C. and washed three times with lysis buffer, and pellets resuspended in electrophoresis sample buffer (187.5 mM Tris-HCl (pH 6.8 at 25° C.), 6% SDS, 30% glycerol, 150 mM DTT, 0.03% bromophenol blue), boiled for 4 min and subjected to SDS-polyacrylamide gel electrophoresis.
Activities of endogenous C-Raf and B-Raf activity was assayed by measuring the ability of kinase immunoprecipitated from neuronal lysates to phosphorylate a kinase-dead recombinant GST-MEK1 substrate. Following immunoprecipitation and multiple washes with lysis buffer, lysis buffer supplemented with 350 mM NaCl, and kinase buffer (25 mM HEPES pH 7.4 and 10 mM MgCl2), in vitro kinase assays are performed on the immune complexes using purified recombinant GST-MEK1 K97M protein as a substrate in kinase buffer supplemented with 85 μM ATP for 35 minutes at 30° C. Reactions are stopped by the addition of 3×SDS sample buffer and boiled for five minutes. Proteins are resolved by SDS-PAGE and subjected to Western blotting. The level of phosphorylated MEK is detected by a phospho-MEK antibody.

[4] = test system: Akt; assay: Akt phosphorylation (Ser473) in neuronal cultures, Western blot; type: cell-based, rat; conditions: added to cultures already switched to LK
Procedure: The best-studied anti-apoptotic pathway in neurons is the PI-3 kinase—Akt signaling pathway (D'Mello et al., 1997; Dudek et al., 1997; Miller et al, 1997a). IGF-1, a potent survival-promotic factor for granule neurons mediates its effect by activating the PI-3 kinase-Akt pathway (Datta et al., 1997; Dudek et al., 1997; D'Mello et al., 1998). […] Switching cerebellar granule neurons from serum-containing HK medium in which they are cultured and allowed to mature, to serum-free LK or HK medium, causes a rapid downregulation of Akt phosphorylation and activity, which can be prevented by IGF-1 (Kumari et al., 2001). […] The same blot was reprobed with an antibody against phospho-Gskβ. Also loaded on the gel were lysates from untreated cultures (maintained in medium containing serum and high K+) and a culture treated for 1 hour with 25 ng/ml IGF-1. […] GSK3βis a proapoptotic molecule that is activated during apoptosis in many neuronal and normeuronal systems. Under survival promoting conditions GSK3β is kept inactivated by phosphorylation, a modification that can be induced by Akt. […] Another proapoptotic molecule that is phosphorylated and inactivated by Akt is the transcription factor, Forkhead (Linseman et al., 2002). […] Switching of neurons to LK medium leads to a rapid downregulation of Akt activity within 2 hours.
as §1

[5] = test system: cerebellar granule neurons; assay: Apoptosis of neurons infected with adenoviral dominant-negative Akt; type: cell-based, rat; conditions: LK + 1 uM GW5074 or 25 ng/ml IGF-1
Text: Five day old neuronal cultures were infected with adenoviral vectors expressing either GFP or hemagluttinin (HA)-tagged dominant-negative Akt. […] Infected neurons were detected by positive staining for GFP or HA by immunocytochemistry. The proportion of apoptotic cells (condensed or fragmented nuclei) as a percentage of total infected neurons was quantified following DAPI-staining.
DnAkt and control recombinant adenovirus expressing green fluorescent protein (Ad-GFP) are propagated in HEK293T cells and purified by cesium chloride density gradient centrifugation. After quantification of titer, virus at an MOI of 10 are used to infect granule neuron cultures 5 days after plating by direct addition to the medium. Treatments are performed 24 hours after addition of virus.

Compound: CC(C)=CCC/C(C)=C/CC/C(C)=C/CSc1ccccc1C(=O)O [FTS, S-trans, trans-farnesylthiosalicylic acid]
effect of Ras antagonist on neuroprotection by GW5074 ([1]; LK + 1 uM GW5074 + 10 uM FTS, 24 hour): blocks the neuroprotective effect of GW5074

Compound: COc1cccc(-c2cc(=O)c3ccccc3o2)c1N [PD98059, reference compound]
effect of MEK inhibitor on neuroprotection by GW5074 [1]: no effect on the neuroprotective effect of GW5074
effect on stimulation of ERK by GW5074 [2]: blocks the stimulation of ERK by GW5074

Compound: N#CC(=C(/N)Sc1ccccc1N)/C(C#N)=C(\N)Sc1ccccc1N [U0126]
effect of MEK inhibitor on neuroprotection by GW5074 [1]: failed to reduce survival by GW5074

effect on immunoprecipitated C-Raf when added in vitro ([3]; 10 uM ZM336372 added to kinase reaction mixture): inhibited in vitro by ZM336372
activity of C-Raf immunoprecipitated from treated cultures ([3]; LK + 50 uM ZM336372, 1 hour): elevated activity
Compound: Cc1ccc(NC(=O)c2cccc(N(C)C)c2)cc1NC(=O)c1ccc(O)cc1 [ZM336372, N-[5-(3-Dimethylaminobenzamido)-2-methylphenyl]-4-hydroxybenzamide, reference compound]
inhibition of LK-mediated apoptosis ([1]; LK medium containing 100 uM ZM336372): inhibits LK-mediated apoptosis

Compound: IGF-1: a potent survival-promotic factor for granule neurons
de novo Akt activation after downregulation in LK [4]: robust increase in Akt phosphorylation
effect of dominant-negative Akt on survival promotion [5]: reduces the survival-promoting effect of IGF-1
